Columns and labels:
corn [1] = experiment: Test C preemergence; assay type: in vivo, Zea mays; conditions: for Corn plant response rating: preemergence, 0 to 100 scale (0 no effect, 100 complete control)
How it was run: (§1)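 Test material, in non-phytotoxic solvent with surfactant, was sprayed on the soil directly after seeding (preemergence) or on young plants of 2–10 cm with one to two leaves (postemergence). Greenhouse, 10 days; 0–100 visual control scale.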

rice = experiment: Test D flooded paddy test; assay type: in vivo, Oryza sativa; conditions: 250 g ai/ha, applied to paddy water, visual rating after 13 to 14 days, scale 0 to 100 (0 no effect, 100 complete control)
How it was run: (§2)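 Rating scale 0–100 (0 no effect, 100 complete control), visual, versus controls. Readout at 13–14 days after in-water application to 2-leaf plants in pots flooded 3 cm deep.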

ragweed [2] = experiment: Test C preemergence; assay type: in vivo, Ambrosia artemisiifolia
How it was run: as §1

blackgrass [3] = experiment: Test C preemergence; assay type: in vivo, Alopecurus myosuroides; conditions: for Blackgrass plant response rating: preemergence, 0 to 100 scale (0 no effect, 100 complete control)
How it was run: as §1

oat, wild [4] = experiment: Test C preemergence; assay type: in vivo, Avena fatua; conditions: for Oat, Wild plant response rating: preemergence, 0 to 100 scale (0 no effect, 100 complete control)
How it was run: as §1

ryegrass, Italian [5] = experiment: Test C postemergence; assay type: in vivo, Lolium multiflorum; conditions: 10 days, 0 to 100 scale (0 no effect, 100 complete control)
How it was run: as §1

ryegrass, Italian [6] = experiment: Test C preemergence; assay type: in vivo, Lolium multiflorum; conditions: for Ryegrass, Italian plant response rating: preemergence, 0 to 100 scale (0 no effect, 100 complete control)
How it was run: as §1

ragweed [7] = experiment: Test C postemergence; assay type: in vivo, Ambrosia artemisiifolia; conditions: 10 days, 0 to 100 scale (0 no effect, 100 complete control)
How it was run: as §1

green foxtail [8] = experiment: Test C postemergence; assay type: in vivo, Setaria viridis; conditions: 10 days, 0 to 100 scale (0 no effect, 100 complete control)
How it was run: as §1

pigweed, palmer [9] = experiment: Test C postemergence; assay type: in vivo, Amaranthus palmeri; conditions: 10 days, 0 to 100 scale (0 no effect, 100 complete control)
How it was run: as §1

barnyardgrass [10] = experiment: Test C preemergence; assay type: in vivo, Echinochloa crusgalli; conditions: for Barnyardgrass plant response rating: preemergence, 0 to 100 scale (0 no effect, 100 complete control)
How it was run: as §1

horseweed = experiment: Test C postemergence; assay type: in vivo, Erigeron canadensis; conditions: 10 days, 0 to 100 scale (0 no effect, 100 complete control)
How it was run: as §1

galium = experiment: Test C postemergence; assay type: in vivo, Galium aparine; conditions: 10 days, 0 to 100 scale (0 no effect, 100 complete control)
How it was run: as §1

pigweed, palmer [11] = experiment: Test C preemergence; assay type: in vivo, Amaranthus palmeri; conditions: for Pigweed, Palmer plant response rating: preemergence, 0 to 100 scale (0 no effect, 100 complete control)
How it was run: as §1

oat, wild [12] = experiment: Test C postemergence; assay type: in vivo, Avena fatua; conditions: 10 days, 0 to 100 scale (0 no effect, 100 complete control)
How it was run: as §1

barnyardgrass [13] = experiment: Test C postemergence; assay type: in vivo, Echinochloa crusgalli; conditions: 10 days, 0 to 100 scale (0 no effect, 100 complete control)
How it was run: as §1

sedge, umbrella = experiment: Test D flooded paddy test; assay type: in vivo, Cyperus difformis; conditions: 250 g ai/ha, applied to paddy water, visual rating after 13 to 14 days, scale 0 to 100 (0 no effect, 100 complete control)
How it was run: as §2

wheat [14] = experiment: Test C preemergence; assay type: in vivo, Triticum aestivum; conditions: for Wheat plant response rating: preemergence, 0 to 100 scale (0 no effect, 100 complete control)
How it was run: as §1

soybean [15] = experiment: Test C preemergence; assay type: in vivo, Glycine max; conditions: for Soybean plant response rating: preemergence, 0 to 100 scale (0 no effect, 100 complete control)
How it was run: as §1

ducksalad = experiment: Test D flooded paddy test; assay type: in vivo, Heteranthera limosa; conditions: 250 g ai/ha, applied to paddy water, visual rating after 13 to 14 days, scale 0 to 100 (0 no effect, 100 complete control)
How it was run: as §2

blackgrass [16] = experiment: Test C postemergence; assay type: in vivo, Alopecurus myosuroides; conditions: 10 days, 0 to 100 scale (0 no effect, 100 complete control)
How it was run: as §1

soybean [17] = experiment: Test C postemergence; assay type: in vivo, Glycine max; conditions: 10 days, 0 to 100 scale (0 no effect, 100 complete control)
How it was run: as §1

barnyardgrass [18] = experiment: Test D flooded paddy test; assay type: in vivo, Echinochloa crus-galli; conditions: 250 g ai/ha, applied to paddy water, visual rating after 13 to 14 days, scale 0 to 100 (0 no effect, 100 complete control)
How it was run: as §2

corn [19] = experiment: Test C postemergence; assay type: in vivo, Zea mays; conditions: 10 days, 0 to 100 scale (0 no effect, 100 complete control)
How it was run: as §1

green foxtail [20] = experiment: Test C preemergence; assay type: in vivo, Setaria viridis; conditions: for Foxtail, Green plant response rating: preemergence, 0 to 100 scale (0 no effect, 100 complete control)
How it was run: as §1

kochia [21] = experiment: Test C preemergence; assay type: in vivo, Bassia scoparia; conditions: for Kochia plant response rating: preemergence, 0 to 100 scale (0 no effect, 100 complete control)
How it was run: as §1

kochia [22] = experiment: Test C postemergence; assay type: in vivo, Bassia scoparia; conditions: 10 days, 0 to 100 scale (0 no effect, 100 complete control)
How it was run: as §1

wheat [23] = experiment: Test C postemergence; assay type: in vivo, Triticum aestivum; conditions: 10 days, 0 to 100 scale (0 no effect, 100 complete control)
How it was run: as §1

[24] = Preemergence, 125 g ai/ha, 0 to 100 scale, 0 no effect, 100 complete control

## Cc1cccc2c1OC(C(F)(F)F)CN2C(=O)c1cccc(-n2cnc(C(C)(C)C)n2)c1 (stereo not drawn) [Compound 347]
Corn [1]; 500 g ai/ha
  Corn plant response rating: 10
Corn [1]; [24]
  Plant response rating, Corn: 0
rice
  Plant response rating, Rice (Flood): 0
Ragweed [2]; 500 g ai/ha, preemergence, 0 to 100 scale (0 no effect, 100 complete control)
  Ragweed plant response rating: 30
Ragweed [2]; [24]
  Plant response rating, Ragweed: 0
Blackgrass [3]; 500 g ai/ha
  Blackgrass plant response rating: 30
Blackgrass [3]; [24]
  Plant response rating, Blackgrass: 10
oat, wild [4]; 500 g ai/ha
  Oat, Wild plant response rating: 70
oat, wild [4]; [24]
  Plant response rating, Oat, Wild: 60
ryegrass, Italian [5]; 500 g ai/ha, postemergence
  Plant response rating, Ryegrass, Italian: 30
ryegrass, Italian [5]; Postemergence, 125 g ai/ha
  Plant response rating, Ryegrass, Italian: 20
ryegrass, Italian [6]; 500 g ai/ha
  Ryegrass, Italian plant response rating: 100
ryegrass, Italian [6]; [24]
  Plant response rating, Ryegrass, Italian: 100
Ragweed [7]; 500 g ai/ha, postemergence
  Plant response rating, Ragweed: 50
Ragweed [7]; Postemergence, 125 g ai/ha
  Plant response rating, Ragweed: 20
Green foxtail [8]; 500 g ai/ha, postemergence
  Plant response rating, Foxtail, Green: 60
Green foxtail [8]; Postemergence, 125 g ai/ha
  Plant response rating, Foxtail, Green: 20
pigweed, palmer [9]; 500 g ai/ha, postemergence
  Plant response rating, Pigweed, Palmer: 80
pigweed, palmer [9]; Postemergence, 125 g ai/ha
  Plant response rating, Pigweed, Palmer: 80
Barnyardgrass [10]; 500 g ai/ha
  Barnyardgrass plant response rating: 100
Barnyardgrass [10]; [24]
  Plant response rating, Barnyardgrass: 20
horseweed; 500 g ai/ha, postemergence
  Plant response rating, Horseweed: 20
horseweed; Postemergence, 125 g ai/ha
  Plant response rating, Horseweed: 0
galium; 500 g ai/ha, postemergence
  Plant response rating, Galium: 80
galium; Postemergence, 125 g ai/ha
  Plant response rating, Galium: 90
pigweed, palmer [11]; 500 g ai/ha
  Pigweed, Palmer plant response rating: 70
pigweed, palmer [11]; [24]
  Plant response rating, Pigweed, Palmer: 80
oat, wild [12]; 500 g ai/ha, postemergence
  Plant response rating, Oat, Wild: 10
oat, wild [12]; Postemergence, 125 g ai/ha
  Plant response rating, Oat, Wild: 10
Barnyardgrass [13]; 500 g ai/ha, postemergence
  Plant response rating, Barnyardgrass: 20
Barnyardgrass [13]; Postemergence, 125 g ai/ha
  Plant response rating, Barnyardgrass: 10
sedge, umbrella
  Plant response rating, Sedge, Umbrella (Flood): 0
Wheat [14]; 500 g ai/ha
  Wheat plant response rating: 40
Wheat [14]; [24]
  Plant response rating, Wheat: 20
Soybean [15]; 500 g ai/ha
  Soybean plant response rating: 30
Soybean [15]; [24]
  Plant response rating, Soybean: 30
ducksalad
  Plant response rating, Ducksalad (Flood): 0
Blackgrass [16]; 500 g ai/ha, postemergence
  Plant response rating, Blackgrass: 60
Blackgrass [16]; Postemergence, 125 g ai/ha
  Plant response rating, Blackgrass: 10
Soybean [17]; 500 g ai/ha, postemergence
  Plant response rating, Soybean: 100
Soybean [17]; Postemergence, 125 g ai/ha
  Plant response rating, Soybean: 100
Barnyardgrass [18]
  Plant response rating, Barnyardgrass (Flood): 0
Corn [19]; 500 g ai/ha, postemergence
  Plant response rating, Corn: 10
Corn [19]; Postemergence, 125 g ai/ha
  Plant response rating, Corn: 10
Green foxtail [20]; 500 g ai/ha
  Foxtail, Green plant response rating: 100
Green foxtail [20]; [24]
  Plant response rating, Foxtail, Green: 90
Kochia [21]; 500 g ai/ha
  Kochia plant response rating: 60
Kochia [21]; [24]
  Plant response rating, Kochia: 50
Kochia [22]; 500 g ai/ha, postemergence
  Plant response rating, Kochia: 70
Kochia [22]; Postemergence, 125 g ai/ha
  Plant response rating, Kochia: 50
Wheat [23]; 500 g ai/ha, postemergence
  Plant response rating, Wheat: 10
Wheat [23]; Postemergence, 125 g ai/ha
  Plant response rating, Wheat: 10

## CCOc1ncn(-c2cccc(C(=O)N3C[C@H](C)Oc4c(Cl)cccc43)c2)n1 [Compound 311]
Corn [1]; 500 g ai/ha
  Corn plant response rating: 0
Corn [1]; Test C, 125 g ai/ha
  Corn plant response rating: 0
rice
  Plant response rating, Rice (Flood): 0
Blackgrass [3]; 500 g ai/ha
  Blackgrass plant response rating: 80
Blackgrass [3]; Test C, 125 g ai/ha
  Blackgrass plant response rating: 10
oat, wild [4]; 500 g ai/ha
  Oat, Wild plant response rating: 30
oat, wild [4]; Test C, 125 g ai/ha
  Oat, Wild plant response rating: 0
ryegrass, Italian [5]; 500 g ai/ha, postemergence
  Plant response rating, Ryegrass, Italian: 30
ryegrass, Italian [5]; Postemergence, 125 g ai/ha
  Plant response rating, Ryegrass, Italian: 10
ryegrass, Italian [6]; 500 g ai/ha
  Ryegrass, Italian plant response rating: 80
ryegrass, Italian [6]; Test C, 125 g ai/ha
  Ryegrass, Italian plant response rating: 30
Ragweed [7]; 500 g ai/ha, postemergence
  Plant response rating, Ragweed: 40
Ragweed [7]; Postemergence, 125 g ai/ha
  Plant response rating, Ragweed: 0
Green foxtail [8]; 500 g ai/ha, postemergence
  Plant response rating, Foxtail, Green: 40
Green foxtail [8]; Postemergence, 125 g ai/ha
  Plant response rating, Foxtail, Green: 30
pigweed, palmer [9]; 500 g ai/ha, postemergence
  Plant response rating, Pigweed, Palmer: 60
pigweed, palmer [9]; Postemergence, 125 g ai/ha
  Plant response rating, Pigweed, Palmer: 20
Barnyardgrass [10]; 500 g ai/ha
  Barnyardgrass plant response rating: 60
Barnyardgrass [10]; Test C, 125 g ai/ha
  Barnyardgrass plant response rating: 0
horseweed; 500 g ai/ha, postemergence
  Plant response rating, Horseweed: 50
horseweed; Postemergence, 125 g ai/ha
  Plant response rating, Horseweed: 50
galium; 500 g ai/ha, postemergence
  Plant response rating, Galium: 90
galium; Postemergence, 125 g ai/ha
  Plant response rating, Galium: 90
pigweed, palmer [11]; 500 g ai/ha
  Pigweed, Palmer plant response rating: 100
pigweed, palmer [11]; Test C, 125 g ai/ha
  Pigweed, Palmer plant response rating: 50
oat, wild [12]; 500 g ai/ha, postemergence
  Plant response rating, Oat, Wild: 10
oat, wild [12]; Postemergence, 125 g ai/ha
  Plant response rating, Oat, Wild: 0
Barnyardgrass [13]; 500 g ai/ha, postemergence
  Plant response rating, Barnyardgrass: 40
Barnyardgrass [13]; Postemergence, 125 g ai/ha
  Plant response rating, Barnyardgrass: 10
sedge, umbrella
  Plant response rating, Sedge, Umbrella (Flood): 0
Wheat [14]; 500 g ai/ha
  Wheat plant response rating: 20
Wheat [14]; Test C, 125 g ai/ha
  Wheat plant response rating: 0
Soybean [15]; 500 g ai/ha
  Soybean plant response rating: 10
Soybean [15]; Test C, 125 g ai/ha
  Soybean plant response rating: 0
ducksalad
  Plant response rating, Ducksalad (Flood): 0
Blackgrass [16]; 500 g ai/ha, postemergence
  Plant response rating, Blackgrass: 90
Blackgrass [16]; Postemergence, 125 g ai/ha
  Plant response rating, Blackgrass: 0
Soybean [17]; 500 g ai/ha, postemergence
  Plant response rating, Soybean: 100
Soybean [17]; Postemergence, 125 g ai/ha
  Plant response rating, Soybean: 70
Barnyardgrass [18]
  Plant response rating, Barnyardgrass (Flood): 0
Corn [19]; 500 g ai/ha, postemergence
  Plant response rating, Corn: 40
Corn [19]; Postemergence, 125 g ai/ha
  Plant response rating, Corn: 10
Green foxtail [20]; 500 g ai/ha
  Foxtail, Green plant response rating: 100
Green foxtail [20]; Test C, 125 g ai/ha
  Foxtail, Green plant response rating: 90
Kochia [21]; 500 g ai/ha
  Kochia plant response rating: 80
Kochia [21]; Test C, 125 g ai/ha
  Kochia plant response rating: 20
Kochia [22]; 500 g ai/ha, postemergence
  Plant response rating, Kochia: 70
Kochia [22]; Postemergence, 125 g ai/ha
  Plant response rating, Kochia: 30
Wheat [23]; 500 g ai/ha, postemergence
  Plant response rating, Wheat: 10
Wheat [23]; Postemergence, 125 g ai/ha
  Plant response rating, Wheat: 10
